Data as given in patent EP0506011A1, “Tetrazoleacetic acid derivatives having aldose reductase inhibitory activity” (Wakamoto Pharmaceutical Co., Ltd., priority 1991, dated 1992).

Biological target: T1, aldose reductase (Rattus norvegicus, UniProt P07943)
T1 construct: The lenses were homogenized in 3 volumes of 135 mM sodium potassium phosphate buffer (pH 7.0) and centrifuged; from tissue; host or cells: crystalline lenses of six-week-old male SD rats
Assay: Test for Examining Aldose Reductase Inhibitory Effect (rat lens enzyme, DL-glyceraldehyde substrate, absorbance at 340 nm)
Assay type: biochemical
Details: aldose reductase solution from crystalline lenses of SD rats; DL-glyceraldehyde 10 mM; 30°C for 5 minutes; pH 5.2; compound at 10 ⁻⁶ M, 10⁻⁷ M or 10 ⁻⁸ M; read-out: IC₅₀
Protocol: Six-week-old male SD rats were anesthetized with ether and killed. Then their crystalline lenses were immediately removed and stored at -80 °C . […] The resulting supernatant was dialyzed overnight against 0.05 M sodium chloride solution to obtain an aldose reductase solution. All operations were conducted at 4 °C and the enzyme solution was stored at -80°C .
More specifically, 0.1 ml of DL-glyceraldehyde (final concentration: 10 mM) was added to 0.9 ml of 100 mM sodium potassium phosphate buffer (pH 5.2) which contained lithium sulfate (final concentration: 400 mM), reduced nicotinamide adenine dinucleotide phosphate (final concentration: 0.15 mM), the enzyme solution, and the compound to be evaluated (final concentration: 10 ⁻⁶ M, 10⁻⁷ M or 10 ⁻⁸ M), and then the reaction was conducted at 30°C for 5 minutes. During the reaction, the change in the absorbance at 340 nm with time was monitored.
The maximum reducing rate of the absorbance (U) during the reaction was determined. By subtracting, from this value, the maximum reducing rate (U₀) at 340 nm of the reaction solution before the addition of the substrate (DL-glyceraldehyde), the reaction rate (V = U - U₀) was calculated as a true reaction rate in the presence of the compound to be tested. The same procedure was repeated except for the absence of the compound to be tested. A true reaction rate (V₀) in case the enzyme was not inhibited was calculated (V₀ = U¹ - U₀¹). The aldose reductase inhibitory activity of the test compounds was determined according to the following formula: Rate of Inhibition (%) = (V₀ - V)/V₀ x 100 [formula]

Row | Structure (SMILES) | IC50
1 | COc1ccc2cc(-c3nnnn3CC(=O)O)sc2c1 [Example 2-11, [5-(6-Methoxy-2-benzothienyl)tetrazol-1-yl]acetic acid] | 21 nM
2 | COc1cc2cc(-c3nnnn3CC(=O)O)sc2c(OC)c1OC [Example 2-14, [5-(5,6,7-Trimethoxy-2-benzothienyl)tetrazol-1-yl]acetic acid] | 69 nM
3 | Cc1c(-c2nnnn2CC(=O)O)sc2ccccc12 [Example 2-5, [5-(3-Methyl-2-benzothienyl)tetrazol-1-yl]acetic acid] | 32 nM
4 | COc1ccc2c(C)c(-c3nnnn3CC(=O)O)oc2c1 [Example 2-17, [5-(6-Methoxy-3-methyl-2-benzofuryl)tetrazol-1-yl]acetic acid] | 160 nM
5 | Cc1c(-c2nnnn2CC(=O)O)oc2ccccc12 [Example 2-16, [5-(3-Methyl-2-Benzofuryl)tetrazol-1-yl]acetic acid] | 68 nM
6 | O=C(O)Cn1nnnc1-c1cc2ccccc2s1 [Example 2-1, [5-(2-Benzothienyl)tetrazol-1-yl]acetic acid] | 24 nM
7 | Cc1ccc2cc(-c3nnnn3CC(=O)O)sc2c1 [Example 2-8, [5-(6-Methyl-2-benzothienyl)tetrazol-1-yl]acetic acid] | 18 nM
8 | COc1cccc2sc(-c3nnnn3CC(=O)O)cc12 [Example 2-9, [5-(4-Methoxy-2-benzothienyl)tetrazol-1-yl]acetic acid] | 20 nM
9 | COc1ccc2sc(-c3nnnn3CC(=O)O)cc2c1 [Example 2-10, [5-(5-Methoxy-2-benzothienyl)tetrazol-1-yl]acetic acid] | 28 nM
10 | O=C(O)Cn1nnnc1-c1cccc2sccc12 [Example 2-3, [5-(4-Benzothienyl)tetrazol-1-yl]acetic acid] | 26 nM
11 | Cc1cccc2sc(-c3nnnn3CC(=O)O)cc12 [Example 2-7, [5-(4-Methyl-2-benzothienyl)tetrazol-1-yl]acetic acid] | 22 nM
12 | O=C(O)Cn1nnnc1-c1cc2ccccc2o1 [Example 2-15, [5-(2-Benzofuryl)tetrazol-1-yl]acetic acid] | 46 nM
13 | CCCCOc1ccc2cc(-c3nnnn3CC(=O)O)sc2c1 [Example 2-12, [5-(6-Butoxy-2-benzothienyl)tetrazol-1-yl]acetic acid] | 24 nM
14 | O=C(O)Cn1nnnc1-c1sc2ccccc2c1Cl [Example 2-6, [5-(3-Chloro-2-benzothienyl)tetrazol-1-yl]acetic acid] | 35 nM
15 | CC(C)c1ccc2cc(-c3nnnn3CC(=O)O)sc2c1 [Example 2-13, [5-(6-Isopropyl-2-benzothienyl)tetrazol-1-yl]acetic acid] | 18 nM
16 | O=C(O)Cn1nnnc1-c1csc2ccccc12 [Example 2-2, [5-(3-Benzothienyl)tetrazol-1-yl]acetic acid] | 19 nM
17 | O=C(O)Cn1nnnc1-c1ccc2ccsc2c1 [Example 2-4, [5-(6-Benzothienyl)tetrazol-1-yl]acetic acid] | 34 nM
